Here are results for one molecule from patent US10202391B2, “Chemical compounds” (AstraZeneca AB, priority 2015, dated 2019).

The subject of this test is H2009 cell line. The experiment in a line: Combination cell growth inhibition (Sytox Green, Loewe synergy), H2009. The following applies: Example 18 with selumetinib, 6x6 dosing matrix 0-10 μmol/L, 3 days, Loewe model, average of three or more experiments. The format is cell-based, human. The source says:
A549 is a human non small cell lung cancer line carrying an oncogenic mutation in the KRAS gene (G12S). H2122 is a human non small cell lung cancer line carrying an oncogenic mutation in the KRAS gene (G12C). H2009 is a human non small cell lung cancer line carrying an oncogenic mutation in the KRAS gene (G12A). Calu6 is a human non small cell lung cancer line carrying mutation in the KRAS ([…]) gene. All cell lines were obtained from the American Type Culture Collection.
All cell line were maintained at 37° C. and 5% CO2 in a humidified atmosphere and grown in RPMI-1640 growth media supplemented with 10% FBS and 2 mmol/L glutamine. […]
Cells were seeded in 384-well black, clear bottomed plates (Greiner Bio-One, Stonehouse, UK), cultured for 18-24 hours and treated with increasing concentrations of Example 18 and selumetinib (0-10 μmol/L) in a 6×6 dosing matrix. […] After 3 days of treatment, live cell number was determined using a Sytox Green endpoint as described previously (“Davies B R, Greenwood H, Dudley P, et al: Preclinical pharmacology of AZD5363, an inhibitor of AKT: Pharmacodynamics, antitumor activity, and correlation of monotherapy activity with genetic background. Mol Cancer Ther 11(4):873-87, 2012”). […] Cells were then permeabilised by the overnight addition of saponin (0.03% final concentration, diluted in TBS-EDTA buffer) and a total cell count measured. […]

Take `COC[C@H]1Cn2cc(-c3nc(Nc4ccnn4C)ncc3C)nc2C(=O)N1Cc1ccc(F)c(F)c1` [Example 18, (R)-7-(3,4-Difluorobenzyl)-6-(methoxymethyl)-2-(5-methyl-2-((1-methyl-1H-pyrazol-5-yl)amino)pyrimidin-4-yl)-6,7-dihydroimidazo[1,2-a]pyrazin-8(5H)-one]: the Synergy score was 67.5.
